# Results reported in patent US20040167181A1, “Methods of treating conditions associated with an Edg-3 receptor” (priority 2003, published 2004).
# Entries after “also recorded” stand apart in the source; their conditions may differ.
# Columns and labels:
# Edg-4 = target: T1, Edg-4 (Homo sapiens, UniProt Q9HBW0); assay: LPA-stimulated calcium increases in HTC cells expressing Edg-4; format: cell-based; settings: concentrations as high as 10 μM
# T1 construct: expressed in transfected cells; host or cells: HTC (rat hepatoma) cells
# Edg-7 = target: T2, Edg-7 (Homo sapiens, UniProt Q9UBY5); assay: LPA-stimulated calcium increases in HTC cells expressing Edg-7; format: cell-based; settings: concentrations as high as 10 μM
# T2 construct: expressed in transfected cells; host or cells: HTC (rat hepatoma) cells
# T2 sequence (Q9UBY5 1-353): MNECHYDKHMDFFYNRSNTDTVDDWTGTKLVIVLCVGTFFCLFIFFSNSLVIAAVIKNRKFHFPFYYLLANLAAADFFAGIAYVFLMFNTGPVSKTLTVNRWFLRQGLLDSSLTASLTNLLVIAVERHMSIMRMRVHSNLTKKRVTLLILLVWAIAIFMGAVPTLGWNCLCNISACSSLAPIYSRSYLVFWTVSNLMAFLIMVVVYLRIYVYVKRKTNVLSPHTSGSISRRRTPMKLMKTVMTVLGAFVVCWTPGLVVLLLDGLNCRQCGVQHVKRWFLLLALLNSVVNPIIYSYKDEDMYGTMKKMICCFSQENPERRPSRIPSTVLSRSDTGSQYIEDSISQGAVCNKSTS
# Adrenergic α2 = assay: Radioligand binding assay, Adrenergic α2; settings: Wistar rat cerebral cortex; 0.7 nM 3H Rauwolscine; significance criteria ≦50% of max stimulation or inhibition
# Procedure: (§1) In order to test the selectivity of compounds, various radioligand binding assays were performed using numerous non-Edg receptor targets as listed below.
# (§2) A radioligand binding assay was performed using adrenergic α1 according to the method of Greengrass and Bremner 1979, Eur. J. Pharmacol. 55:323-326. A radioligand binding assay was performed using adrenergic α2 according to the method of Boyajian and Leslie, 1987, J. Pharmacol. Exp. Ther. 241:1092-1098. A radioligand binding assay was performed using adrenergic β according to the method of Feve et al., 1994, Proc. Natl. Acad. Sci. USA 91:5677-5681. A radioligand binding assay was performed using angiotensin AT2 according to the method of Whitebread et al., 1991, Biochem. Biophys. Res. Comm. 181:1365-1371. A radioligand binding assay was performed using calcium channel Type L, dihydropyridine according to the method of Ehlert et al., 1982, Life Sci. 30:2191-2202. A radioligand binding assay was performed using dopamine D2L according to the method of Bunzo et al., 1988, Nature 336:783-787. A radioligand binding assay was performed using endothelin ETA according to the method of Mihara et al., 1994, J. Pharmacol. Exp Ther. 268:1122-1127. A radioligand binding assay was performed using histamine H1 Central according to the method of Hill et al., 1978, J. Neurochem. 31:997-1004. […]
# (§3) Quantitation Method: Radioligand Binding […]
# Edg-6 = target: T3, Edg-6 (Homo sapiens, UniProt O95977); assay: S1P-stimulated calcium increases in HTC cells expressing Edg-6; format: cell-based; settings: concentrations as high as 10 μM
# T3 construct: expressed in transfected cells; host or cells: HTC (rat hepatoma) cells
# T3 sequence (O95977 1-384): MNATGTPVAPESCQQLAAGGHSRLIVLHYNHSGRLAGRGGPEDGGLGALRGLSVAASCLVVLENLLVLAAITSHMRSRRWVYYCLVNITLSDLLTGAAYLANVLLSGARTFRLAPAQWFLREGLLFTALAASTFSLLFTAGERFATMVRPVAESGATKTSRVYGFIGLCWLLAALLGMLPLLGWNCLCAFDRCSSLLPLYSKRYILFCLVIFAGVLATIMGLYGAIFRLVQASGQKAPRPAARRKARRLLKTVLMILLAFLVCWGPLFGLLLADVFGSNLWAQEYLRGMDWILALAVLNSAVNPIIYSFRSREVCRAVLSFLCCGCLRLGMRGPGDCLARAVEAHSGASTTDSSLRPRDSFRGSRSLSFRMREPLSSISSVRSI
# [1] = test system: Serotonin 5-HT1, non-selective; assay: Radioligand binding assay, Serotonin 5-HT1, non-selective; settings: Wistar rat cerebral cortex; 2 nM 3H Serotonin (5-HT) Trifluoroacetate; significance criteria ≦50% of max stimulation or inhibition
# Procedure: as §1, §2, §3
# [2] = test system: Adrenergic α1, non-selective; assay: Radioligand binding assay, Adrenergic α1, non-selective; settings: Wistar Rat brain; 0.25 nM 3H Prazosin; significance criteria ≦50% of max stimulation or inhibition
# Procedure: as §1, §2, §3
# Edg-8 = target: T4, Edg-8 (Homo sapiens, UniProt Q9H228); assay: S1P-stimulated calcium increases in HTC cells expressing Edg-8; format: cell-based; settings: concentrations as high as 10 μM
# T4 construct: expressed in transfected cells; host or cells: HTC (rat hepatoma) cells
# Adrenergic β = assay: Radioligand binding assay, Adrenergic β; settings: Wistar rat brain; 0.25 nM 3H Dihydroaplenolol; significance criteria ≦50% of max stimulation or inhibition
# Procedure: as §1, §2, §3
# Dopamine D2L = target: T5, Dopamine D2L (Homo sapiens, UniProt P14416); assay: Radioligand binding assay, Dopamine D2L; settings: Human recombinant CHO cells; 0.16 nM 3H Spiperone; significance criteria ≦50% of max stimulation or inhibition
# T5 construct: expressed in transfected cells; host or cells: CHO cells
# Procedure: as §1, §2, §3
# Edg-5 = target: T6, Edg-5 (Homo sapiens, UniProt O95136); assay: S1P-stimulated calcium increases in HTC cells expressing Edg-5; format: cell-based; settings: concentrations as high as 10 μM
# T6 construct: expressed in transfected cells; host or cells: HTC (rat hepatoma) cells
# Edg-1 = target: T7, Edg-1 (Homo sapiens, UniProt P21453); assay: S1P-stimulated calcium increases in HTC cells expressing Edg-1; format: cell-based; settings: concentrations as high as 10 μM
# T7 construct: expressed in transfected cells; host or cells: HTC (rat hepatoma) cells
# human Edg-3 receptors = target: T8, human Edg-3 receptors (Homo sapiens, UniProt Q99500); assay: Calcium response in HTC cells expressing human Edg-3 receptors; format: cell-based; settings: HTC cells expressing human Edg-3 receptors (also tested in NIH 3T3 cell lines that naturally express Edg-3); FIG. 1
# T8 construct: expressed in transfected cells; host or cells: HTC (rat hepatoma) cells
# Source text: Specific assays for Edg-3 receptor activity are known to those of skill in the art. For example, cells expressing Edg-3 receptors can be contacted with a membrane-permeant calcium sensitive dye such as Fluo-4 AM or a proprietary calcium dye loading kit (e.g., FLIPR Calcium Assay kit, Molecular Devices, Sunnyvale, Calif.). Intracellular calcium is capable of binding to the dye and emitting fluorescent radiation when illuminated at the appropriate wavelength. The cells can thus be illuminated an appropriate wavelength for the dye and any emitting light can be captured by a cooled CCD camera. Changes in fluorescence indicate changes in intracellular calcium resulting from the activation of an Edg-3 receptor. Such changes can be measured advantageously in whole cells in “real-time” (Berridge et al., Nature Reviews 2000, 1:11-21).
# The compounds were tested in HTC cells expressing human Edg-3 receptors, as well as in NIH 3T3 cell lines that naturally express Edg-3 receptors. […] The compounds are tested in this recombinant system first, and subsequently tested in cell lines expressing Edg-3 (in addition to other Edg receptors).
# Angiotensin AT2 = target: T9, Angiotensin AT2 (Homo sapiens, UniProt P50052); assay: Radioligand binding assay, Angiotensin AT2; settings: Human recombinant Hela cells; 0.025 nM 125I CGP-42112A; significance criteria ≦50% of max stimulation or inhibition
# T9 construct: expressed in transfected cells; host or cells: Hela cells
# T9 sequence (P50052 1-363): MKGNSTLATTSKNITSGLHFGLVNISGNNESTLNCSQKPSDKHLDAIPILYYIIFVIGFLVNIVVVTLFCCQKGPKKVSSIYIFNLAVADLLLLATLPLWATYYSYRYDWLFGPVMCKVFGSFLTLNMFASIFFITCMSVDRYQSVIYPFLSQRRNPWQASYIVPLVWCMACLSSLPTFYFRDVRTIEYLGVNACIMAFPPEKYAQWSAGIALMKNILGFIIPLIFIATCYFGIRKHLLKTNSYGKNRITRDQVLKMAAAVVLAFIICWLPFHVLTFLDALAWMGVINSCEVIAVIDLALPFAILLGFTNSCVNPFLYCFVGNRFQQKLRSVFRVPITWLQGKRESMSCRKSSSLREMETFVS
# Procedure: as §1, §2, §3
# Histamine H1, Central = target: T10, Histamine H1, Central (Cavia porcellus, UniProt P31389); assay: Radioligand binding assay, Histamine H1, Central; settings: Guinea pig cerebellum; 1.75 nM 3H Pyrilamine; significance criteria ≦50% of max stimulation or inhibition
# T10 construct: from tissue; host or cells: Guinea pig cerebellum
# Procedure: as §1, §2, §3
# Endothelin ETA = target: T11, Endothelin ETA (Homo sapiens, UniProt P25101); assay: Radioligand binding assay, Endothelin ETA; settings: Human recombinant CHO cells; 0.03 nM 125 Endothelin; significance criteria ≦50% of max stimulation or inhibition
# T11 construct: expressed in transfected cells; host or cells: CHO cells
# T11 sequence (P25101 21-427): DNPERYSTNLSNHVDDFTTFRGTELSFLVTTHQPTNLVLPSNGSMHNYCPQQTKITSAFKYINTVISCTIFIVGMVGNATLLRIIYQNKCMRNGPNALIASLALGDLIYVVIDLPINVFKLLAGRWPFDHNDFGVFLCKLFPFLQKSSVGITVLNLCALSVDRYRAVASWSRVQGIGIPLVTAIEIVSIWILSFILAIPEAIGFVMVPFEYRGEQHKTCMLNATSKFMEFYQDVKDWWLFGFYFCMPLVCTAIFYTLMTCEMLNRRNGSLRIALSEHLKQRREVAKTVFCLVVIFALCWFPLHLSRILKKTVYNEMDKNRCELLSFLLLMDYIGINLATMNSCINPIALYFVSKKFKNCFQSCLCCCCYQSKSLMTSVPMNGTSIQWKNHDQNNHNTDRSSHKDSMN
# Procedure: as §1, §2, §3
# [3] = test system: Calcium Channel Type L, Dihydropyridine; assay: Radioligand binding assay, Calcium Channel Type L, Dihydropyridine; settings: Wistar Rat cerebral cortex; 0.1 nM 3H Nitrendipine; significance criteria ≦50% of max stimulation or inhibition
# Procedure: as §1, §2, §3
# Edg-2 = target: T12, Edg-2 (Homo sapiens, UniProt Q92633); assay: LPA-stimulated calcium increases in HTC cells expressing Edg-2; format: cell-based; settings: concentrations as high as 10 μM
# T12 construct: expressed in transfected cells; host or cells: HTC (rat hepatoma) cells
# [4] = test system: Muscarinic non-selective, Central; format: binding; settings: Wistar rat cerebral cortex; 0.29 nM 3H Quinuclidinyl benzilate; significance criteria ≦50% of max stimulation or inhibition
# T8 sequence (Q99500 whole entry): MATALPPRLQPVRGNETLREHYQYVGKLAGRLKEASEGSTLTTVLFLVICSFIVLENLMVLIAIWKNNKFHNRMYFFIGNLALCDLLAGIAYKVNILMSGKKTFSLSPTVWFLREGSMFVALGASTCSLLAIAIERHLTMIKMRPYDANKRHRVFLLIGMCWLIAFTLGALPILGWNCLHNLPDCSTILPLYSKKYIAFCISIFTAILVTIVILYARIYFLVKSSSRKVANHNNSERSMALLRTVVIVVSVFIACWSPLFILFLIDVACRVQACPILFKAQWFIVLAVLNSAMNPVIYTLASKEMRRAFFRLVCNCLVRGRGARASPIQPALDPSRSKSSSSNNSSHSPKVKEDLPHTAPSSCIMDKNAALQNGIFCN
# T4 sequence (Q9H228 whole entry, species assumed): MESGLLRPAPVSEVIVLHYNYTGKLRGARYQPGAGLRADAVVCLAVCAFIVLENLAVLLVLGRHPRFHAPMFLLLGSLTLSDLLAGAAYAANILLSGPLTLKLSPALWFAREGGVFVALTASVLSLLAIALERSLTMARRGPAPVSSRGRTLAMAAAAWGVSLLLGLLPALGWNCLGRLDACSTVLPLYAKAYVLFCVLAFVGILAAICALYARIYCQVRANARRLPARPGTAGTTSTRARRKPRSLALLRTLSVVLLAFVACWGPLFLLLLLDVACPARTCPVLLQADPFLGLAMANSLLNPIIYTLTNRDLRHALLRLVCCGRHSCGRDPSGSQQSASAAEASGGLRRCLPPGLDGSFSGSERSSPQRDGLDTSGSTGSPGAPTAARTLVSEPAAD
# T7 sequence (P21453 whole entry): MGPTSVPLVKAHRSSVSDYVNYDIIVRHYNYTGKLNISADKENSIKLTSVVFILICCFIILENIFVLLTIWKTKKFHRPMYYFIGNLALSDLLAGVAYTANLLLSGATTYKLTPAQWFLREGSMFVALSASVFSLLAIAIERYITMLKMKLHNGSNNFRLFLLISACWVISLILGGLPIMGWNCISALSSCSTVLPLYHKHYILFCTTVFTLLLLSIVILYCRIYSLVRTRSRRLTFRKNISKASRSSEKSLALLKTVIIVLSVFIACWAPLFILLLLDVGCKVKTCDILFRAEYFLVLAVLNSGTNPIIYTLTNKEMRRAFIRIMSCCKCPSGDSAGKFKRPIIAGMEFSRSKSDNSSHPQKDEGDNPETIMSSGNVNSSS
# T5 sequence (P14416 whole entry): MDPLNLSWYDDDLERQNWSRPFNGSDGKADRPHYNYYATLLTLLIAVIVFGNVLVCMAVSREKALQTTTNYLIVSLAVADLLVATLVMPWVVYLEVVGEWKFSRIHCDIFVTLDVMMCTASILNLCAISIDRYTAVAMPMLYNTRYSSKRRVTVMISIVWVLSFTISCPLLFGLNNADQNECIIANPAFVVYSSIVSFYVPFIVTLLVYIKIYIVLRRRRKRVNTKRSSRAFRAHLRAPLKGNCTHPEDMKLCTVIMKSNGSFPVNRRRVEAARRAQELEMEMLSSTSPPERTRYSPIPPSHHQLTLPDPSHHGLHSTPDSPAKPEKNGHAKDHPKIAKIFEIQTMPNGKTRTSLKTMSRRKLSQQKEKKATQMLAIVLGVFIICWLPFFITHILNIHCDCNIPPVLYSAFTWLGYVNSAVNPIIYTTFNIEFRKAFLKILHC
# T10 sequence (P31389 whole entry): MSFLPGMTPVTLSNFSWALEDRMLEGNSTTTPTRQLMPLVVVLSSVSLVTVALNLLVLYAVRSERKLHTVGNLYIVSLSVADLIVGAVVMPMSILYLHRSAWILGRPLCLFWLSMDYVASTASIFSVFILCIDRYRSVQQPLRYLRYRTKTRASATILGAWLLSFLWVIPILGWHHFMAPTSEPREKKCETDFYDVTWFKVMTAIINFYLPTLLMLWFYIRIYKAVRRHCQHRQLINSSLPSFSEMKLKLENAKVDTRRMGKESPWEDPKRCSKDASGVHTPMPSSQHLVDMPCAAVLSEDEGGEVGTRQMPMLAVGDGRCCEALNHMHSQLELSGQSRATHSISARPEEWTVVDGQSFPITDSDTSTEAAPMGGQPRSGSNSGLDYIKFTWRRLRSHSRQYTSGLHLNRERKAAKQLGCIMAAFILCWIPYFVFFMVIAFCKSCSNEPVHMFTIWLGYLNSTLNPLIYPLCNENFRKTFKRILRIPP
# T12 sequence (Q92633 whole entry): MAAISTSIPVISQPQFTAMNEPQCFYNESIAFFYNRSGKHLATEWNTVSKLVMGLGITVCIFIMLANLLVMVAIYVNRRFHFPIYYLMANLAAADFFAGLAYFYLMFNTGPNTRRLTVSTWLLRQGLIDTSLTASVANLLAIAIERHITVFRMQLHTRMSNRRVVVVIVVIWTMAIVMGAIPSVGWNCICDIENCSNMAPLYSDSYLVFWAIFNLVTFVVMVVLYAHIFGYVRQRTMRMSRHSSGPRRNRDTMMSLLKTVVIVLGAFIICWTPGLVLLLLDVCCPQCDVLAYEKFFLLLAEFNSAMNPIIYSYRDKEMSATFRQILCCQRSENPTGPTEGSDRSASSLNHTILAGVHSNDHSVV
# T1 sequence (Q9HBW0 whole entry, species assumed): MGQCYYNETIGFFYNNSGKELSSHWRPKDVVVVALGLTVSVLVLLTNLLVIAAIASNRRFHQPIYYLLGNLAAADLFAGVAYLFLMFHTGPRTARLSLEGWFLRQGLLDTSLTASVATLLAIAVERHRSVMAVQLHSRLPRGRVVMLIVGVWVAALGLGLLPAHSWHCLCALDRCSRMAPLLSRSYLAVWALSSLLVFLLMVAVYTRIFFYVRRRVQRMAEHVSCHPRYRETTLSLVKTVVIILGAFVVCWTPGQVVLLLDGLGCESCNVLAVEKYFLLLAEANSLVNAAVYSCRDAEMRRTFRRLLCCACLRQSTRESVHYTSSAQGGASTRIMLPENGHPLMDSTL
# T6 sequence (O95136 whole entry, species assumed): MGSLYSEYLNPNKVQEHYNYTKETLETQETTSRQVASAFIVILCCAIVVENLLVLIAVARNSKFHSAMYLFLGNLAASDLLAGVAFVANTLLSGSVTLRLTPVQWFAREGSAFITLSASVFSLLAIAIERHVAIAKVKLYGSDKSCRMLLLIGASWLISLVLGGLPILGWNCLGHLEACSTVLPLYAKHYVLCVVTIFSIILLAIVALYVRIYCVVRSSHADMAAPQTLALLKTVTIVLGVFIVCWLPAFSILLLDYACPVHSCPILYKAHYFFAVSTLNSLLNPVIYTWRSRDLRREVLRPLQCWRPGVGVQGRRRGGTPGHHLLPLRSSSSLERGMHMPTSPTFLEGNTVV
compound,measurement,setting,value
Cc1c(-c2ccccc2)nc2ccccc2c1C(=O)NCc1ccc(F)cc1 [Compound 101],inhibition of LPA-stimulated calcium increases,Edg-4,did not inhibit
same,inhibition of LPA-stimulated calcium increases,Edg-7,did not inhibit
same,activity in radioligand binding assay,Adrenergic α2,no significant activity
same,inhibition of S1P-stimulated calcium increases,Edg-6,did not inhibit
same,activity in radioligand binding assay,[1],no significant activity
same,activity in radioligand binding assay,[2],no significant activity
same,inhibition of S1P-stimulated calcium increases,Edg-8,did not inhibit
same,activity in radioligand binding assay,Adrenergic β,no significant activity
same,activity in radioligand binding assay,Dopamine D2L,no significant activity
same,inhibition of S1P-stimulated calcium increases,Edg-5,did not inhibit
same,inhibition of S1P-stimulated calcium increases,Edg-1,did not inhibit
same,inhibition of Edg-3 stimulated SP1 responses,human Edg-3 receptors,demonstrate inhibition; also recorded: specifically inhibit
same,activity in radioligand binding assay,Angiotensin AT2,no significant activity
same,activity in radioligand binding assay,"Histamine H1, Central",no significant activity
same,activity in radioligand binding assay,Endothelin ETA,no significant activity
same,activity in radioligand binding assay,[3],no significant activity
same,inhibition of LPA-stimulated calcium increases,Edg-2,did not inhibit
same,activity in radioligand binding assay,[4],no significant activity
